Test results as given in PMC10924921, “Mi-2β promotes immune evasion in melanoma by activating EZH2 methylation” (Nature Communications, 2024).

Legend:
Test in all cases: biochemical
Design in all cases: KINOMEscan active-site competition binding panel (468 kinase assays), per cent of control at 1000 nM
Conditions in all cases: KINOMEscan per cent of control (binding competition); read-out: Percent Control
FLT3(N841I) = FLT3(N841I) (Homo sapiens, UniProt P36888, N841I)
Text: (§1) Figure S7 / Percent Control

PKMYT1 = PKMYT1 (Homo sapiens, UniProt Q99640)
PKMYT1, sequence (Q99640 whole entry): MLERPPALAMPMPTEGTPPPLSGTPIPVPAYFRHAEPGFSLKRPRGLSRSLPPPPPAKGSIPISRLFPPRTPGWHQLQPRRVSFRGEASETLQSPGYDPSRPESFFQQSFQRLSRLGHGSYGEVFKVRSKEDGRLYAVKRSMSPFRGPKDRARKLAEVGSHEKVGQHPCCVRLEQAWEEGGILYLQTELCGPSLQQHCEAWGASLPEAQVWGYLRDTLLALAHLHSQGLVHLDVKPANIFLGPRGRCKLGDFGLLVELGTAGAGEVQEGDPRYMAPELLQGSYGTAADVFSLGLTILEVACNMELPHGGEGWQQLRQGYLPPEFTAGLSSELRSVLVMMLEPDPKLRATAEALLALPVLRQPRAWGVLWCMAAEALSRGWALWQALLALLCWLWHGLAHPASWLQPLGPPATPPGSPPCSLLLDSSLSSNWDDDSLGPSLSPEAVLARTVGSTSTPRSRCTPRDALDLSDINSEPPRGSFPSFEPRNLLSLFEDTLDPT
Text: as §1

CDK7 = CDK7 (Homo sapiens, UniProt P50613)
Text: as §1

DCAMKL3 = target: T1, DCAMKL3 (Homo sapiens, UniProt Q9C098)
T1 construct: gene DCLK3
Text: as §1

GRK7 = GRK7 (Homo sapiens, UniProt Q8WTQ7)
Text: as §1

PHKG1 = PHKG1 (Homo sapiens, UniProt Q16816)
Text: as §1

CAMK2A = CAMK2A (Homo sapiens, UniProt Q9UQM7)
Text: as §1

BMPR1A = BMPR1A (Homo sapiens, UniProt P36894)
Text: as §1

MAP3K15 = MAP3K15 (Homo sapiens, UniProt Q6ZN16)
MAP3K15, sequence (Q6ZN16 whole entry): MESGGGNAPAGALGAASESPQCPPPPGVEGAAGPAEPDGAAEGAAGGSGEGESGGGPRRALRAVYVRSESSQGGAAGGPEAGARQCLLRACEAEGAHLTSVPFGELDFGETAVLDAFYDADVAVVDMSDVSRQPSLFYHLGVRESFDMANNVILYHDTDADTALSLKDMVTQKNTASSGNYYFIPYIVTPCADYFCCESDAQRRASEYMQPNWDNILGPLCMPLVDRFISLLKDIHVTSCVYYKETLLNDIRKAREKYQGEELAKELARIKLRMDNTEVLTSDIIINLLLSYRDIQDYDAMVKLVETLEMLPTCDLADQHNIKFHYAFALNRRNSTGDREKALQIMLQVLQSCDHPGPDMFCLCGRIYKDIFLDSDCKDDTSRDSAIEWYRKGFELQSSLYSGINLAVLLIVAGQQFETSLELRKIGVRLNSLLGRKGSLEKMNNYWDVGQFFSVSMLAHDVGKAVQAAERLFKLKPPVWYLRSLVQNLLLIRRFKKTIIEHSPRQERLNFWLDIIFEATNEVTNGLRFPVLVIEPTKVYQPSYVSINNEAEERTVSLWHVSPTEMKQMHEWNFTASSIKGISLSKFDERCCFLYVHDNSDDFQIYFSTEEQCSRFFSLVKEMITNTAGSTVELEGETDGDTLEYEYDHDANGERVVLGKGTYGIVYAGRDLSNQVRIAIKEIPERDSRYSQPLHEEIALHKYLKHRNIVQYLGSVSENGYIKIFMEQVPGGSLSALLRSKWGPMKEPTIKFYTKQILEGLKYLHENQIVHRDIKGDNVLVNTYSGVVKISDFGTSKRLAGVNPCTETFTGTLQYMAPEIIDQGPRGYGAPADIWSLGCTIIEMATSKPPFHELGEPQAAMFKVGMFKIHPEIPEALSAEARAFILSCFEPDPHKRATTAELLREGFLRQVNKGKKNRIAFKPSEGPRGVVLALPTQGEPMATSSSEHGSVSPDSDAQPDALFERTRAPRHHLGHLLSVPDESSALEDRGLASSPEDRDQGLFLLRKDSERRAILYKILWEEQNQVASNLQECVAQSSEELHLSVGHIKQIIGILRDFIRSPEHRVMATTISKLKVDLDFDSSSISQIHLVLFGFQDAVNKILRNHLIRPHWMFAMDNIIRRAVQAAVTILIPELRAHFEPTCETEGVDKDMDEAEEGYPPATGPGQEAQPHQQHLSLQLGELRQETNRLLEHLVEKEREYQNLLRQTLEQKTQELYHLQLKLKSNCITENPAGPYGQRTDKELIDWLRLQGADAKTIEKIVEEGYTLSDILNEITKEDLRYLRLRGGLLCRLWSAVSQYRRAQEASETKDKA
Text: as §1

MYO3A = MYO3A (Homo sapiens, UniProt Q8NEV4)
MYO3A, sequence (Q8NEV4 whole entry): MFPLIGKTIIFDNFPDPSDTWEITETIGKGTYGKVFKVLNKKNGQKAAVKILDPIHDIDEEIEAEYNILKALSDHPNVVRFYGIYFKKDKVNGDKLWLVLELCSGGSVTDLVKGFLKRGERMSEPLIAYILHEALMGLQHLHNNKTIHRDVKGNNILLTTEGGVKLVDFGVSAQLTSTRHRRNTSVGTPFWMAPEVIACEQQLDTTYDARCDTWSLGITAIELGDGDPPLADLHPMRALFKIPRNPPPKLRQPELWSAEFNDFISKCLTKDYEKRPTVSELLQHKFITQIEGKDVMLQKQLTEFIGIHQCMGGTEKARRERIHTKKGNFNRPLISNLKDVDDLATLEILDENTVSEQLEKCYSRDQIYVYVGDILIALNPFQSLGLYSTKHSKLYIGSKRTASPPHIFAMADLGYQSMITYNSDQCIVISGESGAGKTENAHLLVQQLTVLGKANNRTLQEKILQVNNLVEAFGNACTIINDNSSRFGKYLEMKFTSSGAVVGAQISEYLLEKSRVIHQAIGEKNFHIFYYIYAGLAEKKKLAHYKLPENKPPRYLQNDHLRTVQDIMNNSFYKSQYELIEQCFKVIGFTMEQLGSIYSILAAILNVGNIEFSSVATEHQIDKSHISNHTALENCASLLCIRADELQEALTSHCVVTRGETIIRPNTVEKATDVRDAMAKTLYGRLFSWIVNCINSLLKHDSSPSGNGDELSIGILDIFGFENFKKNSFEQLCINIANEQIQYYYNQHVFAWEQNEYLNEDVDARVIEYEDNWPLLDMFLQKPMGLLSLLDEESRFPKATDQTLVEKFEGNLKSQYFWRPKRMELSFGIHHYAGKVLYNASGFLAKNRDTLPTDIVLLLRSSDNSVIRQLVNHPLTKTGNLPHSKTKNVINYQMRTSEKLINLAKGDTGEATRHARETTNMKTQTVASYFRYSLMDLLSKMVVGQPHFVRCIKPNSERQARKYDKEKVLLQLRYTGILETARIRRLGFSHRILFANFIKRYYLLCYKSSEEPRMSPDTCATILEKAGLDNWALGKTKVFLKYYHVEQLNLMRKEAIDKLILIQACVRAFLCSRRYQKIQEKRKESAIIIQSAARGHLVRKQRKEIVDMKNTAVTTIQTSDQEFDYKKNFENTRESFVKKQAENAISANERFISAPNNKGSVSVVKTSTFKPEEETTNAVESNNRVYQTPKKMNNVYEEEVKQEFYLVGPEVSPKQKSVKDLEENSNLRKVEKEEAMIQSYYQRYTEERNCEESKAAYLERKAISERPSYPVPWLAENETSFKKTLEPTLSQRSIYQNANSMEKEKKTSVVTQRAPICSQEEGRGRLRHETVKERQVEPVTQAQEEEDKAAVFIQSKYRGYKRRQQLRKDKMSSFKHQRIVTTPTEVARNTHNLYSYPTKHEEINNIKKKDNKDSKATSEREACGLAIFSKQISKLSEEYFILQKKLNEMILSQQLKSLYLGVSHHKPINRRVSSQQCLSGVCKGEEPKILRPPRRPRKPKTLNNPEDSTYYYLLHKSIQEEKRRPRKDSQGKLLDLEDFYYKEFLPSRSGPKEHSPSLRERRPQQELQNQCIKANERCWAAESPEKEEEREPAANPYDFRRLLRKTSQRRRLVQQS
Text: as §1

PKAC-beta = target: T2, PKAC-beta (Homo sapiens, UniProt P22694)
T2 construct: gene PRKACB
Text: as §1

ERK3 = target: T3, ERK3 (Homo sapiens, UniProt Q16659)
T3 construct: gene MAPK6
Text: as §1

[1] = target: T4, ABL1(Q252H)-nonphosphorylated (Homo sapiens, UniProt P00519, Q252H)
T4 construct: nonphosphorylated
Text: as §1

FGR = FGR (Homo sapiens, UniProt P09769)
Text: as §1

SBK1 = SBK1 (Homo sapiens, UniProt Q52WX2)
Text: as §1

[2] = target: T5, RSK2(Kin.Dom.1-N-terminal) (Homo sapiens, UniProt P51812)
T5 construct: gene RPS6KA3; Kin.Dom.1-N-terminal
T5 sequence (P51812 whole entry): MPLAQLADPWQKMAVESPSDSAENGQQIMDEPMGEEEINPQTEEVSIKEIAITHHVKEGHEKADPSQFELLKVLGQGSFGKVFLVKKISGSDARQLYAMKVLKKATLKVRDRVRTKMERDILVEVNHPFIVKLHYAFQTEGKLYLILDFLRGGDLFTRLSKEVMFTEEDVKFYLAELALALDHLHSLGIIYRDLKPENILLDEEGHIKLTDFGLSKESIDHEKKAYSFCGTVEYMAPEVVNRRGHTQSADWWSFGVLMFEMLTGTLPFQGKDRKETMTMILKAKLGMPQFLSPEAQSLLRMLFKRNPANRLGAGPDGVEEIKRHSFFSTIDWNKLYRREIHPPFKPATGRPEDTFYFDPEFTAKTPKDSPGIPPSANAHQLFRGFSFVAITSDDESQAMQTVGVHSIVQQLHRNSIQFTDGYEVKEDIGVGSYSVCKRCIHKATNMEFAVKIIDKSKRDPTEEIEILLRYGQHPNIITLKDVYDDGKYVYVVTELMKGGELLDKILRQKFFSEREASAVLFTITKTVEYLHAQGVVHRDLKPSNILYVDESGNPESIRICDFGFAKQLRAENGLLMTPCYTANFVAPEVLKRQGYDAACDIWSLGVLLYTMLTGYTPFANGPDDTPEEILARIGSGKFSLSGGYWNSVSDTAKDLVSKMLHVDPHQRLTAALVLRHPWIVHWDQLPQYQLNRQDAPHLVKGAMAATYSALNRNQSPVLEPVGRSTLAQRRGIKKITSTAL
Text: as §1

p38-delta = target: T6, p38-delta (Homo sapiens, UniProt O15264)
T6 construct: gene MAPK13
T6 sequence (O15264 whole entry): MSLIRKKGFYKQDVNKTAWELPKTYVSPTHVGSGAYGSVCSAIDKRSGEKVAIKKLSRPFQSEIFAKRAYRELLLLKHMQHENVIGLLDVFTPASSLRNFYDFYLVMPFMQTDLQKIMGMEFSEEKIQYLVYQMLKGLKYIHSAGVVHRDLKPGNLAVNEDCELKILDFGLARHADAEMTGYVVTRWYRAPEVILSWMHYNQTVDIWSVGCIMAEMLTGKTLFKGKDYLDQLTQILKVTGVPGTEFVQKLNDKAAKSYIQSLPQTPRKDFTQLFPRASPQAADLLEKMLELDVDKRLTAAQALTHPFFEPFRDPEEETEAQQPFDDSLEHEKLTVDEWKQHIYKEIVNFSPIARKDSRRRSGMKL
Text: as §1

CSF1R = CSF1R (Homo sapiens, UniProt P07333)
Text: as §1

EPHB2 = EPHB2 (Homo sapiens, UniProt P29323)
Text: as §1

NEK6 = NEK6 (Homo sapiens, UniProt Q9HC98)
NEK6, sequence (Q9HC98 whole entry): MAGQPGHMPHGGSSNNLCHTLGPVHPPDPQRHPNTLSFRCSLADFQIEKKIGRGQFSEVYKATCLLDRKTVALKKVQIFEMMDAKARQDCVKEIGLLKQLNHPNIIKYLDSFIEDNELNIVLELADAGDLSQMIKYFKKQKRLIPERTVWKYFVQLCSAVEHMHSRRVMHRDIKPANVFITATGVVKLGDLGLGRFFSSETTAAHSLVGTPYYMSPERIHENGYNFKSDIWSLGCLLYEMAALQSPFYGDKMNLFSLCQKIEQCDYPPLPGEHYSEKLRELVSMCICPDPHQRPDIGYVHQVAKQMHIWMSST
Text: as §1

PIK3CA(I800L) = PIK3CA(I800L) (Homo sapiens, UniProt P42336, I800L)
Text: as §1

FLT3(K663Q) = FLT3(K663Q) (Homo sapiens, UniProt P36888, K663Q)
Text: as §1

RET = RET (Homo sapiens, UniProt P07949)
Text: as §1

SRPK1 = SRPK1 (Homo sapiens, UniProt Q96SB4)
Text: as §1

Q: What does the source list for `Cn1c(=O)[nH]c2ccc(-c3cccc(C(=O)NC4CCn5ccnc5C4)c3)cc21` (stereo not drawn) [Z36-MP5]?
A: remaining binding at 1 µM (FLT3(N841I)): 63%; remaining binding at 1 µM (PKMYT1): 93%; remaining binding at 1 µM (CDK7): 42%; remaining binding at 1 µM (DCAMKL3): 92%; remaining binding at 1 µM (GRK7): 90%; remaining binding at 1 µM (PHKG1): 90%; remaining binding at 1 µM (CAMK2A): 87%; remaining binding at 1 µM (BMPR1A): 100%; remaining binding at 1 µM (MAP3K15): 52%; remaining binding at 1 µM (MYO3A): 100%; remaining binding at 1 µM (PKAC-beta): 96%; remaining binding at 1 µM (ERK3): 90%; remaining binding at 1 µM [1]: 84%; remaining binding at 1 µM (FGR): 85%; remaining binding at 1 µM (SBK1): 74%; remaining binding at 1 µM [2]: 67%; remaining binding at 1 µM (p38-delta): 98%; remaining binding at 1 µM (CSF1R): 91%; remaining binding at 1 µM (EPHB2): 70%; remaining binding at 1 µM (NEK6): 83%; remaining binding at 1 µM (PIK3CA(I800L)): 94%; remaining binding at 1 µM (FLT3(K663Q)): 98%; remaining binding at 1 µM (RET): 67%; remaining binding at 1 µM (SRPK1): 55%
